Laboratory results from paper PMC7400457, “Profiling and Identification of Omeprazole Metabolites in Mouse Brain and Plasma by Isotope Ratio-Monitoring Liquid Chromatography-Mass Spectrometric Method” (Life, 2020).
Like-named read-outs stand apart in the source and are kept apart here.

Experiment: Pharmacokinetic study of omeprazole in mice after i.v., i.p. and p.o. administration (plasma and brain, LC-QTOF-MS)
Format: in vivo, Male ICR mice
Details: 10 mg/kg; for Kp: brain/plasma; for bioavailability: read-out: BA (bioavailability)
Method: Omeprazole formulation was freshly prepared on the day of experiment. Mice were randomly distributed into three different groups (twelve mice per group; p.o. group, i.v. group and i.p. group) and received 10 mg/kg of omeprazole. […] Blood was drawn into the heparinized tubes through cardiac puncture and was immediately centrifuged at 10,000 rpm for 5 min. The supernatant of the centrifuged samples was transferred to the clean tubes and stored at −80 °C until analysis. […] The homogenized samples were stored at −80 °C until usage. • Plasma samples: Ten microliters of the mouse plasma samples were placed in cluster tubes. […] Hundred microliters of ACN containing internal standard (ISTD, verapamil) was added to each sample for extraction. The mixture was capped, gently shaken for approximately 1 min and then was centrifuged for 5 min at 10,000 rpm (4 °C). Following the centrifugation, 50 μL supernatant was transferred to a clean test tube and was diluted with 100 μL of distilled water. […] Ten microliters of the mouse brain homogenate were placed in cluster tubes. […] Hundred microliters of ACN containing internal standard (ISTD, verapamil) was added to each sample for extraction. The mixture was capped, gently shaken for approximately 1 min and then centrifuged for 5 min at 10,000 rpm (4 °C). Following the centrifugation, 50 μL supernatant was transferred to a clean test tube and was diluted with 100 μL of distilled water. The resulting mixture was then transferred to an LC-vial, and 10 μL was injected to the LC–QTOF–MS. • Standard (STD) and quality control (QC) samples: […] The mixture was capped, gently shaken for approximately 1 min and then centrifuged for 5 min at 10,000 rpm (4 °C). Following the centrifugation, 50 μL supernatant was transferred to a clean test tube and was diluted with 100 μL of distilled water. The resulting mixture was then transferred to an LC–vial, and 10 μL was injected to the LC–QTOF–MS. Data acquisition and LC–QTOF-MS operation was conducted using Analyst® TF Version 1.6 (Sciex). MultiQuant® Version 2.1.1 (Sciex) was used for the peak integration of omeprazole for quantification. PeakView® Version 2.2 and MetabolitePilot^TM Version 2.0.2 were used for the structural elucidation of omeprazole metabolites. Pharmacokinetic parameters were calculated in a non-compartmental analysis using WinNonlin® version 8.0.0 (Certara, Princeton, NJ, USA). The developed LC–QTOF-MS method was successfully applied to determine the PK parameters after i.v., i.p. and p.o. administration at a dose level of 10 mg/kg each for omeprazole in mice. During the sample preparation of the PK samples, QC samples were included for the assurance of the bioanalytical run. All the PK samples were within the range of the qualified calibration range (3.02~6670 ng/mL). Final concentrations were calculated by considering the dilution factors (e.g., 4× and 2× of the concentrations obtained from the brain and plasma, respectively). Each PK parameters were measured by non-compartmental analysis using WinNonlin (version 8.0.0). […] (Kp) = AUCbrain/AUCplasma(1)

In the case of `COc1ccc2[nH]c([S+]([O-])Cc3ncc(C)c(OC)c3C)nc2c1` (stereo not shown) [Omeprazole], the “brain-to-plasma partition coefficient (Kp) = AUCbrain/AUCplasma” value (i.p., AUClast) is reported as 0.0681, the Kp (male, ICR, mouse, ip, i.p., AUClast, read-out: brain-to-plasma partition coefficient (Kp) = AUCbrain/AUCplasma) is reported as 0.068 and the Kp (male, ICR, mouse, ip, i.p., read-out: Brain/Plasma Ratio) is reported as 0.0681. It also gave a Kp (male, ICR, mouse, iv, i.v., AUClast, read-out: brain-to-plasma partition coefficient (Kp) = AUCbrain/AUCplasma) of 0.15, a Kp (male, ICR, mouse, iv, i.v., read-out: Brain/Plasma Ratio) of 0.147 and a Kp (male, ICR, mouse, po, p.o., AUClast, read-out: brain-to-plasma partition coefficient (Kp) = AUCbrain/AUCplasma) of 0.064. For the same molecule, the Kp (male, ICR, mouse, po, p.o., read-out: Brain/Plasma Ratio) was 0.0643, the AUC(0-t) (male, ICR, mouse, ip, brain) was 72.8 ng·h/mL and the half-life (male, ICR, mouse, ip, brain) was 51.3 min. For the same molecule, the AUC(0-t) (male, ICR, mouse, ip, plasma) was 1070 ng·h/mL, the Cmax (male, ICR, mouse, ip, plasma) was 4890 ng/mL and the half-life (male, ICR, mouse, ip, plasma) was 28.8 min. For the same molecule, the AUC(0-t) (male, ICR, mouse, iv, brain) was 652 ng·h/mL, the half-life (male, ICR, mouse, iv, brain) was 48.2 min and the AUC(0-t) (male, ICR, mouse, iv, plasma) was 4440 ng·h/mL. It also gave a Cmax (male, ICR, mouse, iv, plasma) of 67600 ng/mL, a Vd (male, ICR, mouse, iv, plasma) of 1.49 L/kg and a clearance (male, ICR, mouse, iv, plasma) of 37.8 mL/min/kg. For the same molecule, the half-life (male, ICR, mouse, iv, plasma) was 27.4 min, the bioavailability (male, ICR, mouse, plasma, ip) was 24.1% and the bioavailability (male, ICR, mouse, plasma, po) was 5.31%. For the same molecule, the AUC(0-t) (male, ICR, mouse, po, brain) was 15.2 ng·h/mL, the Cmax (male, ICR, mouse, po, brain) was 37.8 ng/mL and the half-life (male, ICR, mouse, po, brain) was 44.6 min. It also gave an AUC(0-t) (male, ICR, mouse, po, plasma) of 236 ng·h/mL, a Cmax (male, ICR, mouse, po, plasma) of 610 ng/mL and a half-life (male, ICR, mouse, po, plasma) of 54.8 min. For the same molecule, the “brain-to-plasma partition coefficient (Kp) = AUCbrain/AUCplasma” value (p.o., AUClast) was 0.0643.
